Measured values published in paper PMC9814838, “The orphan nuclear receptor Nurr1 is responsive to non-steroidal anti-inflammatory drugs” (Communications Chemistry, 2020).
Read-outs that look alike come from different tables or passages of the source.

How the values were obtained:
Type in all cases: cell-based
Nurr1 = target: T1, Nurr1 (Homo sapiens, UniProt P43354); assay: Gal4-Nurr1 hybrid reporter gene assay in HEK293T cells; conditions: for Nurr1 activity 10μM (mean fold activation) / Nurr1 activity 30μM (mean fold activation): primary screen, n ≥ 2, ^# not significant vs VP16 control
T1 construct: Nurr1 (uniprot entry: hNURR1–P43354, residues 360–598); expressed in transfected cells; host or cells: HEK293T
T1 sequence (P43354 360-598): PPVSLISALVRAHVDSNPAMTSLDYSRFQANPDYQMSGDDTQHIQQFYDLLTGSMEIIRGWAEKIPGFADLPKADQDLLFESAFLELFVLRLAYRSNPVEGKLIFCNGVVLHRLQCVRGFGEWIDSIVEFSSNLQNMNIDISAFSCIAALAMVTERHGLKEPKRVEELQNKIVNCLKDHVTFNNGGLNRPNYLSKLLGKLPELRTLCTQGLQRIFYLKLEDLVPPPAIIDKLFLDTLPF

Nur77 = target: T2, Nur77 (Homo sapiens, UniProt P22736); assay: Gal4-Nur77 hybrid reporter gene assay in HEK293T cells; conditions: for Nur77 activity 10μM (mean fold activation) / Nur77 activity 30μM (mean fold activation): primary screen, n ≥ 2, ^# not significant vs VP16 control; for IC50: HEK293T, n≥3; for IC50 / Nur77 min./max. activation: mean ± SD; for Nur77 min./max. activation: compared to 0.1% DMSO; for Nur77 activity in words or dash: dash = not reported as active versus VP16 control (p < 0.05)
T2 construct: Nur77 (uniprot entry: hNUR77–P22736, residues 358–598); expressed in transfected cells; host or cells: HEK293T
T2 sequence (P22736 358-598): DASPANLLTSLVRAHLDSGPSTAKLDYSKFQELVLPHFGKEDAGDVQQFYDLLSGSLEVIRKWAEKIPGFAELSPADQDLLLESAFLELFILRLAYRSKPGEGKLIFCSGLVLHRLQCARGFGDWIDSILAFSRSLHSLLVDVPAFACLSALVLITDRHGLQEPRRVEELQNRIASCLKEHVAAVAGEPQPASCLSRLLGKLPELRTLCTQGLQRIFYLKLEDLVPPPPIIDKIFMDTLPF

NOR1 = target: T3, NOR1 (Homo sapiens, UniProt Q92570); assay: Gal4-NOR1 hybrid reporter gene assay in HEK293T cells; conditions: for Nor1 activity 10μM (mean fold activation) / Nor1 activity 30μM (mean fold activation): primary screen, n ≥ 2, ^# not significant vs VP16 control; for NOR1 min./max. activation: compared to 0.1% DMSO; for NOR1 activity in words or dash: dash = not reported as active versus VP16 control (p < 0.05)
T3 construct: NOR1 (isoform alpha; uniprot entry: hNOR1–Q92570-1, residues 393–626); expressed in transfected cells; host or cells: HEK293T
T3 sequence (Q92570 393-626): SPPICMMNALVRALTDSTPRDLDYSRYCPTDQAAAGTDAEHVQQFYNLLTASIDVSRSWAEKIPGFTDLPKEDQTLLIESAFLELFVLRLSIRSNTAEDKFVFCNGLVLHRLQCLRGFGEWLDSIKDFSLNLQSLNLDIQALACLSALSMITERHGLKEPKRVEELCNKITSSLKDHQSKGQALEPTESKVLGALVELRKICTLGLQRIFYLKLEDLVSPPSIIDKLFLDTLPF

[1] = HEK293T, mean ± SD, n≥3, read-out: NOR1 IC50

Compound	Nurr1 activity 10μM (mean fold activation) (Nurr1)	Nurr1 activity 30μM (mean fold activation) (Nurr1)	Nur77 activity 10μM (mean fold activation) (Nur77)	Nur77 activity 30μM (mean fold activation) (Nur77)	Nor1 activity 10μM (mean fold activation) (NOR1)	Nor1 activity 30μM (mean fold activation) (NOR1)	Nurr1 activity in words or dash (Nurr1; dash = not reported as active versus VP16 control (p < 0.05))	IC50 (Nur77)	Nur77 min./max. activation (Nur77)	Nur77 activity in words or dash (Nur77)	IC50 (NOR1; [1])	NOR1 min./max. activation (NOR1; mean ± SD)	NOR1 activity in words or dash (NOR1)	IC50 (NOR1)
CC(=O)Oc1ccccc1C(=O)O [acetylsalicylic acid]	1.02 fold	0.92 fold	0.98 fold	0.97 fold	1.03 fold	0.93 fold								
Nc1c(CC(=O)O)cccc1C(=O)c1ccc(Br)cc1 [bromfenac]	1.09 fold	1.12 fold	1.08 fold	1.03 fold	1.26 fold	1.09 fold								
CC(C(=O)O)c1ccc2c(c1)[nH]c1ccc(Cl)cc12 (stereo not shown) [carprofen]	1.10 fold	1.19 fold	1.08 fold	0.95 fold	1.17 fold	0.99 fold								
Cc1ccc(-c2cc(C(F)(F)F)nn2-c2ccc(S(N)(=O)=O)cc2)cc1 [celecoxib]	0.93 fold	0.97 fold	0.75 fold	toxic	0.92 fold	toxic								
O=C(O)Cc1ccccc1Nc1c(Cl)cccc1Cl [diclofenac]	1.19 fold	toxic	0.94 fold	toxic	1.11 fold	toxic								
CCc1cccc2c3c([nH]c12)C(CC)(CC(=O)O)OCC3 (stereo not shown) [etodolac]	1.06 fold	0.93 fold	0.85 fold	0.90 fold	0.95 fold	0.91 fold								
O=C(OCCOCCO)c1ccccc1Nc1cccc(C(F)(F)F)c1 [etofenamate]	0.97 fold	toxic	0.84 fold	toxic	1.07 fold	toxic								
CC(C(=O)O)c1cccc(Oc2ccccc2)c1 (stereo not shown) [fenoprofen]	1.00 fold	0.91 fold	0.99 fold	0.86 fold	1.01 fold	0.81 fold								
O=C(O)c1ccccc1Nc1cccc(C(F)(F)F)c1 [flufenamic acid]	1.14 fold	toxic	0.99 fold	toxic	1.36 fold	toxic								
Cc1c(Nc2ncccc2C(=O)O)cccc1C(F)(F)F [flunixin]	toxic	toxic	toxic	toxic	toxic	toxic								
CC(C(=O)O)c1ccc(-c2ccccc2)c(F)c1 (stereo not shown) [flurbiprofen]	1.25 fold	1.05 fold	0.93 fold	0.96 fold	0.98 fold	0.91 fold								
CC(C)Cc1ccc(C(C)C(=O)O)cc1 (stereo not shown) [ibuprofen]	1.02 fold	0.90 fold	0.99 fold	0.89 fold	0.95 fold	0.96 fold								
COc1ccc2c(c1)c(CC(=O)O)c(C)n2C(=O)c1ccc(Cl)cc1 [indometacin]	0.96 fold	0.91 fold	0.83 fold	toxic	0.87 fold	toxic								
Cc1cc(NC(=O)C2=C(O)c3ccccc3S(=O)(=O)N2C)no1 [isoxicam]	0.98 fold	0.90 fold	0.96 fold	0.80 fold	1.02 fold	0.87 fold								
CC(C(=O)O)c1cccc(C(=O)c2ccccc2)c1 (stereo not shown) [ketoprofen]	1.00 fold	0.94 fold	1.04 fold	0.88 fold	1.10 fold	0.96 fold								
Cc1cccc(Nc2ccccc2C(=O)O)c1C [mefenamic acid]	0.90 fold	0.86 fold	0.80 fold	toxic	0.95 fold	toxic								
Cc1cnc(NC(=O)C2=C(O)c3ccccc3S(=O)(=O)N2C)s1 [meloxicam]									0.23 ± 0.02			0.1 ± 0.1		84 ± 17 µM
CS(=O)(=O)Nc1ccc([N+](=O)[O-])cc1Oc1ccccc1 [nimesulid]	1.00 fold	0.89 fold	0.90 fold	toxic	0.91 fold	0.84 fold								

Now from value to compound, other results behind:

Nurr1 activity 10μM (mean fold activation) (Nurr1)	Nurr1 activity 30μM (mean fold activation) (Nurr1)	Nur77 activity 10μM (mean fold activation) (Nur77)	Nur77 activity 30μM (mean fold activation) (Nur77)	Nor1 activity 10μM (mean fold activation) (NOR1)	Nor1 activity 30μM (mean fold activation) (NOR1)	Nurr1 activity in words or dash (Nurr1; dash = not reported as active versus VP16 control (p < 0.05))	IC50 (Nur77)	Nur77 min./max. activation (Nur77)	Nur77 activity in words or dash (Nur77)	IC50 (NOR1; [1])	NOR1 min./max. activation (NOR1; mean ± SD)	NOR1 activity in words or dash (NOR1)	Compound	IC50 (NOR1)
0.93 fold	0.86 fold	0.86 fold	0.64 fold	0.92 fold	0.73 fold	without affecting Nurr1 activity	9.4 ± 6.3 µM	0.63 ± 0.09	inverse agonism	24 ± 3 µM	0.62 ± 0.02	inverse agonism	CN1C(C(=O)Nc2ccccn2)=C(O)c2sc(Cl)cc2S1(=O)=O [lornoxicam]	
0.94 fold	0.94 fold	0.98 fold	0.69 fold	1.00 fold	0.78 fold		30 ± 1 µM	0.38 ± 0.02	inverse agonism	33 ± 5 µM	0.32 ± 0.10	inverse agonism	COc1ccc(-c2noc(CC(=O)O)c2-c2ccc(OC)cc2)cc1 [mofezolac]	
1.44 fold	1.46 fold	1.57 fold	1.44 fold	1.69 fold	1.74 fold								COc1ccc2cc(CCC(C)=O)ccc2c1 [nabumeton]	
1.14 fold	1.15 fold	0.99 fold	1.07 fold	1.09 fold	1.09 fold								COc1ccc2cc([C@H](C)C(=O)O)ccc2c1 [naproxen]	
1.02 fold	0.92 fold	0.98 fold	0.97 fold	1.09 fold	1.23 fold								NC(=O)Cc1cccc(C(=O)c2ccccc2)c1N [nepafenac]	
0.94 fold	1.04 fold	0.83 fold	0.81 fold	0.94 fold	1.02 fold								CCCCC1C(=O)N(c2ccccc2)N(c2ccccc2)C1=O [phenylbutazone]	
